4 molecules from patent publication US20230103631A1, “PEPTIDES AS SELECTIVE GIP RECEPTOR AGONISTS” (Sanofi, priority 2020, published 2023) can be followed below.

As usually defined, the EC50 is the concentration at which the effect is half-maximal. Read a high EC50 as a need for much substance. As a reminder, the solubility is how much of the substance goes into solution per volume. Higher therefore signals much dissolved substance.

Series [1] concerns the target human GLP-1 receptor (hGLP-1R) (Homo sapiens, UniProt P43220). As to the kind of experiment: cAMP HTRF assay, HEK-293 cell line over-expressing human GLP-1 receptor. Format: cell-based. The following applies: HEK-293, cAMP, 0% HSA. As for the experimental part:
Each vial contained 1.8 ml cells. The vials were slowly frozen to −80° C. in isopropanol, and then transferred in liquid nitrogen for storage.
Prior to their use, frozen cells were thawed quickly at 37° C. and washed (5 min at 900 rpm) with 20 ml cell buffer (1× HBSS; 20 mM HEPES, plus 0.1% HSA if indicated in Example conditions).
For measurement of cAMP generation, 5 μl cells (final 5000 cells/well) and 5 μl of test compound were added to a 384-well plate, followed by incubation for 30 min at room temperature.
The cAMP generated was determined using a kit from Cisbio Corp. based on HTRF (Homogenous Time Resolved Fluorescence). The cAMP assay was performed according to manufacturer's instructions (Cisbio).
A general note: TR-FRET usually uses a lanthanide donor and a delayed reading to cut background.

The nature of another series: physchem. Format: physicochemical. As to conditions: for Soluble amount: 24 h, pH 7.4; for solubility at 24 h: pH 7.4, Soluble amount. As for the experimental part:
Prior to the solubility measurement of a peptide batch, its purity was determined through UHPLC/MS. […] Therefore, solutions from solid samples were prepared in a buffer system with a concentration of 10 mg/ml compound based on the previously determined % purity: Solubility buffer system A) 100 mM phosphate buffer pH 7.4 […] Solubility buffer system C) 100 mM phosphate buffer pH 7.4, 2.7 mg/ml m-cresol UHPLC-UV was performed after 1 h of gentle agitation and storage at 5° C. over night (24 h) from the supernatant, which was obtained after 15 min of centrifugation at 2500 RCF (relative centrifugal acceleration). […] The different UV extinction coefficients of sample and reference peptide were calculated based on the different amino acid sequences and considered in the concentration calculation. The analytical method used was Analytical UHPLC Method A. Peptide samples were prepared in solubility buffer system A or C and solubility was assessed as described in Methods.

For a further series, the target named is T1, human GIP receptor (human, UniProt P48546 22-466).
T1 sequence (looked up): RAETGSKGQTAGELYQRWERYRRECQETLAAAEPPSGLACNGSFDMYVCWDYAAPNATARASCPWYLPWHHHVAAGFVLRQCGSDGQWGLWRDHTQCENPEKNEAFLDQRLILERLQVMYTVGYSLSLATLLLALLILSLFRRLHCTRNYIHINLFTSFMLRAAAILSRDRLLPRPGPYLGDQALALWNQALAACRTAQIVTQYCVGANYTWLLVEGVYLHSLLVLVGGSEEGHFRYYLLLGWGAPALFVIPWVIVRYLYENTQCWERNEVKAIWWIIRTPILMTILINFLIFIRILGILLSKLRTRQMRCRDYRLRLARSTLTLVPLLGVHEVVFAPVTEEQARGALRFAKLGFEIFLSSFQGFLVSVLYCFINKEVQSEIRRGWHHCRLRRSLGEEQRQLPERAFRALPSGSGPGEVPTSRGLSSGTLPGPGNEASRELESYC
Description: cell-based or functional assay.

The next series has as its target human GLP-1 receptor (human, UniProt P43220 24-463). Description: cell-based or functional assay.

*1 amine or outer side, *2 acyl side, *3 side chain or, on linkers, in order; H or OH if unused. Where a SMILES comes first, the peptide text is derived from it. Where no end group is shown, it is not given here. Side-chain parts run from the residue outwards. [ ]: non-standard residue; d: D form. The star is where a group is joined. C18 diacid = O=C(O)CCCCCCCCCCCCCCCCC(=O)*; γGlu = O=C(O)[C@H](CCC(=O)[*:2])N[*:1]; AEEA = NCCOCCOCC(=O)O; Aib = CC(C)(N)C(=O)O; Sar = CNCC(=O)O

Sequence of human GLP-1 receptor (hGLP-1R) (P43220 24-463): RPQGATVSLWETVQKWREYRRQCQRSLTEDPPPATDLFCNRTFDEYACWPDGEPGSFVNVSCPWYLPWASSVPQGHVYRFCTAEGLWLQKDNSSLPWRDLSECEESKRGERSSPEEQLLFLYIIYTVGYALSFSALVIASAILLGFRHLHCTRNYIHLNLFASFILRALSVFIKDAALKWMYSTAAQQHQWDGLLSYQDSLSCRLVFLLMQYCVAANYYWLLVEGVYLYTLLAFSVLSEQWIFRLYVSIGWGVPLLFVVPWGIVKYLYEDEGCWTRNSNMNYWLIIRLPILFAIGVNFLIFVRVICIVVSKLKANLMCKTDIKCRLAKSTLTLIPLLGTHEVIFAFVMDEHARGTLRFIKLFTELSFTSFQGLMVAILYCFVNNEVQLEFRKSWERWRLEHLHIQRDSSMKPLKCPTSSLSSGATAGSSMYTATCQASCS

Turning to `CC[C@H](C)[C@H](NC(=O)[C@H](Cc1ccccc1)NC(=O)[C@H](CCC(=O)O)NC(=O)[C@H](CCC(=O)O)NC(=O)[C@H](CCC(N)=O)NC(=O)[C@H](Cc1c[nH]cn1)NC(=O)[C@@H](NC(=O)[C@H](CCCNC(=N)N)NC(=O)[C@H](CC(=O)O)NC(=O)[C@H](CCCCNC(=O)COCCOCCNC(=O)COCCOCCNC(=O)CC[C@H](NC(=O)CC[C@H](NC(=O)CCCCCCCCCCCCCCCCC(=O)O)C(=O)O)C(=O)O)NC(=O)C(C)(C)NC(=O)[C@@H](NC(=O)[C@H](CO)NC(=O)[C@H](CC(C)C)NC(=O)[C@H](CC(=O)O)NC(=O)[C@H](CO)NC(=O)[C@@H](NC(=O)[C@H](Cc1ccccc1)NC(=O)[C@@H](NC(=O)CNC(=O)[C@H](CCC(=O)O)NC(=O)C(C)(C)NC(=O)[C@@H](N)Cc1ccc(O)cc1)[C@@H](C)O)[C@@H](C)CC)[C@@H](C)CC)[C@@H](C)CC)C(=O)N[C@@H](CCC(=O)O)C(=O)N[C@@H](Cc1c[nH]c2ccccc12)C(=O)N[C@@H](CC(C)C)C(=O)N[C@@H](CC(C)C)C(=O)N[C@@H](C)C(=O)N[C@@H](CCC(N)=O)C(=O)NCC(=O)N1CCC[C@H]1C(=O)N[C@@H](CO)C(=O)N[C@@H](CO)C(=O)NCC(=O)N[C@@H](C)C(=O)N1CCC[C@H]1C(=O)N1CCC[C@H]1C(=O)N1CCC[C@H]1C(=O)N[C@@H](CO)C(N)=O` [SEQ ID NO: 14, H2N-Y-Aib-E-G-T-F-I-S-D-I-S-I-Aib-K[{AEEA}2-{gGlu}2-C18OH]-DRIHQEEFIEWILAQGPSSGAPPPS-NH2] (H-Y[Aib]EGTFISDLSI[Aib]K([AEEA-AEEA-γGlu-γGlu-C18 diacid])DRIHQEEFIEWLLAQGPSSGAPPPS-NH2), the 50% effective concentration (EC50) in series [1] was above 10 nM. In “physchem”, the Soluble amount was above 9.7 mg/mL and the solubility at 24 h is above 9300 µg/mL.

The molecule `CC[C@H](C)[C@H](NC(=O)[C@H](Cc1ccccc1)NC(=O)[C@H](CCC(=O)O)NC(=O)[C@H](CCC(=O)O)NC(=O)[C@H](CCC(N)=O)NC(=O)[C@H](Cc1c[nH]cn1)NC(=O)[C@@H](NC(=O)[C@H](CCCNC(=N)N)NC(=O)[C@H](CC(=O)O)NC(=O)[C@H](CCCCNC(=O)CNC(=O)CNC(=O)CNC(=O)CC[C@H](NC(=O)CCCCCCCCCCCCCCCCC(=O)O)C(=O)O)NC(=O)C(C)(C)NC(=O)[C@@H](NC(=O)[C@H](CO)NC(=O)[C@H](CC(C)C)NC(=O)[C@H](CC(=O)O)NC(=O)[C@H](CO)NC(=O)[C@@H](NC(=O)[C@H](Cc1ccccc1)NC(=O)[C@@H](NC(=O)CNC(=O)[C@H](CCC(=O)O)NC(=O)C(C)(C)NC(=O)[C@@H](N)Cc1ccc(O)cc1)[C@@H](C)O)[C@@H](C)CC)[C@@H](C)CC)[C@@H](C)CC)C(=O)N[C@@H](CCC(=O)O)C(=O)N[C@@H](Cc1c[nH]c2ccccc12)C(=O)N[C@@H](CC(C)C)C(=O)N[C@@H](CC(C)C)C(=O)N[C@@H](C)C(=O)N[C@@H](CCC(N)=O)C(=O)NCC(=O)N1CCC[C@H]1C(=O)N[C@@H](CO)C(=O)N[C@@H](CO)C(=O)NCC(=O)N[C@@H](C)C(=O)N1CCC[C@H]1C(=O)N1CCC[C@H]1C(=O)N1CCC[C@H]1C(=O)N[C@@H](CO)C(N)=O` [SEQ ID NO: 16, H2N-Y-Aib-E-G-T-F-I-S-D-I-S-I-Aib-K[{Gly}3-gGlu-C18OH]-DRIHQEEFIEWILAQGPSSGAPPPS-NH2] (H-Y[Aib]EGTFISDLSI[Aib]K([Gly-Gly-Gly-γGlu-C18 diacid])DRIHQEEFIEWLLAQGPSSGAPPPS-NH2) displayed an EC50 in series [1] above 10 nM. In the series “physchem”, this molecule had a Soluble amount above 9.9 mg/mL and a solubility at 24 h above 10000 µg/mL.

In series [1], `CC[C@H](C)[C@H](NC(=O)[C@H](Cc1ccccc1)NC(=O)[C@H](CCC(=O)O)NC(=O)[C@H](CCC(=O)O)NC(=O)[C@H](CCC(N)=O)NC(=O)[C@H](Cc1c[nH]cn1)NC(=O)[C@@H](NC(=O)[C@H](CCCNC(=N)N)NC(=O)[C@H](CC(=O)O)NC(=O)[C@H](CCCCNC(=O)CN(C)C(=O)CN(C)C(=O)CN(C)C(=O)CC[C@H](NC(=O)CCCCCCCCCCCCCCCCC(=O)O)C(=O)O)NC(=O)C(C)(C)NC(=O)[C@@H](NC(=O)[C@H](CO)NC(=O)[C@H](CC(C)C)NC(=O)[C@H](CC(=O)O)NC(=O)[C@H](CO)NC(=O)[C@@H](NC(=O)[C@H](Cc1ccccc1)NC(=O)[C@@H](NC(=O)CNC(=O)[C@H](CCC(=O)O)NC(=O)C(C)(C)NC(=O)[C@@H](N)Cc1ccc(O)cc1)[C@@H](C)O)[C@@H](C)CC)[C@@H](C)CC)[C@@H](C)CC)C(=O)N[C@@H](CCC(=O)O)C(=O)N[C@@H](Cc1c[nH]c2ccccc12)C(=O)N[C@@H](CC(C)C)C(=O)N[C@@H](CC(C)C)C(=O)N[C@@H](C)C(=O)N[C@@H](CCC(N)=O)C(=O)NCC(=O)N1CCC[C@H]1C(=O)N[C@@H](CO)C(=O)N[C@@H](CO)C(=O)NCC(=O)N[C@@H](C)C(=O)N1CCC[C@H]1C(=O)N1CCC[C@H]1C(=O)N1CCC[C@H]1C(=O)N[C@@H](CO)C(N)=O` [SEQ ID NO: 17, H2N-Y-Aib-E-G-T-F-I-S-D-I-S-I-Aib-K[{N-MeGly}3-gGlu-C18OH]-DRIHQEEFIEWILAQGPSSGAPPPS-NH2] (H-Y[Aib]EGTFISDLSI[Aib]K([Sar-Sar-Sar-γGlu-C18 diacid])DRIHQEEFIEWLLAQGPSSGAPPPS-NH2) had an EC50 above 10 nM. Also, in “physchem”, the Soluble amount is above 11.8 mg/mL and the solubility at 24 h was above 10900 µg/mL.

B1: SEQ ID NO: 17 (peptide)
peptide: Y[Aib]EGTFISDLSI[Aib]K([Sar-Sar-Sar-γGlu-C18 diacid])DRIHQEEFIEWLLAQGPSSGAPPPS-NH2
modifications: N-terminus assumed
SMILES: CC[C@H](C)[C@H](NC(=O)[C@H](Cc1ccccc1)NC(=O)[C@H](CCC(=O)O)NC(=O)[C@H](CCC(=O)O)NC(=O)[C@H](CCC(N)=O)NC(=O)[C@H](Cc1c[nH]cn1)NC(=O)[C@@H](NC(=O)[C@H](CCCNC(=N)N)NC(=O)[C@H](CC(=O)O)NC(=O)[C@H](CCCCNC(=O)CN(C)C(=O)CN(C)C(=O)CN(C)C(=O)CC[C@H](NC(=O)CCCCCCCCCCCCCCCCC(=O)O)C(=O)O)NC(=O)C(C)(C)NC(=O)[C@@H](NC(=O)[C@H](CO)NC(=O)[C@H](CC(C)C)NC(=O)[C@H](CC(=O)O)NC(=O)[C@H](CO)NC(=O)[C@@H](NC(=O)[C@H](Cc1ccccc1)NC(=O)[C@@H](NC(=O)CNC(=O)[C@H](CCC(=O)O)NC(=O)C(C)(C)NC(=O)[C@@H](N)Cc1ccc(O)cc1)[C@@H](C)O)[C@@H](C)CC)[C@@H](C)CC)[C@@H](C)CC)C(=O)N[C@@H](CCC(=O)O)C(=O)N[C@@H](Cc1c[nH]c2ccccc12)C(=O)N[C@@H](CC(C)C)C(=O)N[C@@H](CC(C)C)C(=O)N[C@@H](C)C(=O)N[C@@H](CCC(N)=O)C(=O)NCC(=O)N1CCC[C@H]1C(=O)N[C@@H](CO)C(=O)N[C@@H](CO)C(=O)NCC(=O)N[C@@H](C)C(=O)N1CCC[C@H]1C(=O)N1CCC[C@H]1C(=O)N1CCC[C@H]1C(=O)N[C@@H](CO)C(N)=O
Regarding B1, in the series with human GIP receptor, the “EC50 hGIPR 0% HSA, cAMP in HEK-293 cells” value amounted to 0.00029 nM and the “EC50 hGIPR 0.1% HSA, cAMP in HEK-293 cells” value is 0.00339 nM. In addition, the “EC50 hGLP-1R 0% HSA, cAMP in HEK-293 cells” value with human GLP-1 receptor is above 10 nM.
